Where two headings read alike, the source gives them in different places.
Test system: SMN2-linked luciferase-reporter gene construct
Test: SMN splice reporter assay (SMN2-linked luciferase reporter, Example 10)
Format: cell-based
Details: for maximal fold induction: read-out: SMN Splice Reporter Assay (Example 10) Avg MaxFold Increase
Outline: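 Values are fold-increase in luciferase signal relative to baseline cells without compound. The cervical carcinoma line used holds a fusion of alternatively spliced SMN2 sequence and luciferase. Readable frame, and thus signal, arises only with exon 7-including splicing.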

[1] = SMN2-linked luciferase reporter, average
[2] = maximum fold increase of reporter signal, average

EC50 [1] [nM]	SMILES	maximal fold induction [2]	maximal fold induction (SMN2-linked luciferase reporter, average maximum fold increase)
1010	CC(C(=O)O)c1ccc(N2CC3=C(CC=CC3)C2=O)cc1 (stereo not drawn) [ALB-112896]	1.58	–
5820	CC(C(=O)O)c1ccc(N2CC3CCCCC3C2=O)cc1 (stereo not drawn) [ALB-112901]	1.49	–
280	C[C@@H](C(=O)O)c1ccc(N2Cc3ccccc3C2=O)cc1 [ALB-112941]	1.48	–
279	CC(C(=O)O)c1ccc(N2CC3=C(CCCC3)C2=O)cc1 (stereo not drawn) [ALB-112951]	1.79	–
330	Cc1ccc2c(c1)C(=O)N(c1ccc(C(C)C(=O)O)cc1)C2 (stereo not drawn) [ALB-112954]	1.62	–
3740	C/C=C\c1ccc2c(c1)C(=O)N(c1ccc(C(C)C(=O)OC(C)(C)C)cc1)C2 (stereo not drawn) [ALB-113000]	1.31	–
101	C=Cc1ccc2c(c1)CN(c1ccc(C(C)C(=O)OC(C)(C)C)cc1)C2=O (stereo not drawn) [ALB-113100]	1.05	–
242	CCOc1ccc2c(c1)C(=O)N(c1ccc(C(C)C(=O)OC(C)(C)C)cc1)C2 (stereo not drawn) [ALB-113101]	1.38	–
62	CCOc1ccc2c(c1)C(=O)N(c1ccc(C(C)C(=O)O)cc1)C2 (stereo not drawn) [ALB-113102]	1.83	–
–	CC(C(=O)O)c1ccc(N2Cc3ccc(O)cc3C2=O)cc1 (stereo not drawn) [ALB-113103]	1.04	–
2880	C=Cc1ccc2c(c1)C(=O)N(c1ccc(C(C)C(=O)OC(C)(C)C)cc1)C2 (stereo not drawn) [ALB-113210]	1.15	–
786	CCc1ccc2c(c1)C(=O)N(c1ccc(C(C)C(=O)OC(C)(C)C)cc1)C2 (stereo not drawn) [ALB-113211]	1.37	–
103	CCc1ccc2c(c1)C(=O)N(c1ccc(C(C)C(=O)O)cc1)C2 (stereo not drawn) [ALB-113212]	1.87	–
144	CC(CO)c1ccc(N2Cc3ccccc3C2=O)cc1 (stereo not drawn) [ALB-113309]	1.19	–
50	CC(=O)c1ccc2c(c1)C(=O)N(c1ccc(C(C)C(=O)O)cc1)C2 (stereo not drawn) [ALB-113387]	1.18	–
1120	CCCCCc1ccc2c(c1)C(=O)N(c1ccc(C(C)C(=O)O)cc1)C2 (stereo not drawn) [ALB-113388]	1.77	–
179	COCC(C)c1ccc(N2Cc3ccccc3C2=O)cc1 (stereo not drawn) [ALB-113389]	1.34	–
10400	C=Cc1ccc2c(c1)CN(c1ccc(C(C)C(=O)O)cc1)C2=O (stereo not drawn) [ALB-113390]	1.29	–
15300	CCOc1cccc2c1C(=O)N(c1ccc(C(C)C(=O)O)cc1)C2 (stereo not drawn) [ALB-113391]	1.46	–
4860	CC(C)Oc1cccc2c1C(=O)N(c1ccc(C(C)C(=O)O)cc1)C2 (stereo not drawn) [ALB-113392]	1.65	–
209	C=Cc1cccc2c1C(=O)N(c1ccc(C(C)C(=O)O)cc1)C2 (stereo not drawn) [ALB-113393]	1.21	–
1840	CCc1cccc2c1C(=O)N(c1ccc(C(C)C(=O)O)cc1)C2 (stereo not drawn) [ALB-113395]	1.49	–
218	CCc1ccc2c(c1)CN(c1ccc(C(C)C(=O)O)cc1)C2=O (stereo not drawn) [ALB-113490]	1.48	–
–	CCCCCc1ccc2c(c1)CN(c1ccc(C(C)C(=O)O)cc1)C2=O (stereo not drawn) [ALB-113491]	1.12	–
24	CC(C)Oc1ccc2c(c1)C(=O)N(c1ccc(C(C)C(=O)O)cc1)C2 (stereo not drawn) [ALB-113492]	1.67	–

EC50 [1] [nM]	SMILES	maximal fold induction [2]	maximal fold induction (SMN2-linked luciferase reporter, average maximum fold increase)
81	CC(C(=O)O)c1ccc(N2Cc3ccc(OC4CCCC4)cc3C2=O)cc1 (stereo not drawn) [ALB-113493]	1.89	–
1170	CCCCCOc1ccc2c(c1)C(=O)N(c1ccc(C(C)C(=O)O)cc1)C2 (stereo not drawn) [ALB-113494]	1.75	–
18300	CCCCCCc1cccc2c1C(=O)N(c1ccc(C(C)C(=O)O)cc1)C2 (stereo not drawn) [ALB-113495]	1.35	–
–	CC(=O)c1cccc2c1C(=O)N(c1ccc(C(C)C(=O)O)cc1)C2 (stereo not drawn) [ALB-113496]	1.18	–
–	CCCCCc1cccc2c1C(=O)N(c1ccc(C(C)C(=O)O)cc1)C2 (stereo not drawn) [ALB-113497]	1.18	–
–	CC(C(=O)O)c1ccc(N2Cc3cc(O)ccc3C2=O)cc1 (stereo not drawn) [ALB-113560]	1.05	–
–	CC(C)c1ccc2c(c1)CN(c1ccc(C(C)C(=O)O)cc1)C2=O (stereo not drawn) [ALB-113561]	1.21	–
55	CC(C)c1ccc2c(c1)C(=O)N(c1ccc(C(C)C(=O)O)cc1)C2 (stereo not drawn) [ALB-113563]	1.8	–
–	CCCc1ccc2c(c1)CN(c1ccc(C(C)C(=O)O)cc1)C2=O (stereo not drawn) [ALB-113564]	1.05	–
–	CC(C)c1cccc2c1C(=O)N(c1ccc(C(C)C(=O)O)cc1)C2 (stereo not drawn) [ALB-113565]	1.19	–
5150	CC(C(=O)O)c1ccc(N2Cc3cccc(OC4CCCC4)c3C2=O)cc1 (stereo not drawn) [ALB-113566]	1.96	–
–	CC(C(=O)O)c1ccc(N2Cc3cc(N(C)C)ccc3C2=O)cc1 (stereo not drawn) [ALB-113646]	1.05	–
–	CC(C(=O)O)c1ccc(N2Cc3cc(NS(C)(=O)=O)ccc3C2=O)cc1 (stereo not drawn) [ALB-113647]	–	1.11
–	CCOc1ccc2c(c1)CN(c1ccc(C(C)C(=O)O)cc1)C2=O (stereo not drawn) [ALB-113649]	1.13	–
209	CC(CBr)c1ccc(N2Cc3ccccc3C2=O)cc1 (stereo not drawn) [ALB-113651]	1.44	–
142	CC(C(=O)O)c1ccc(N2Cc3cc(F)ccc3C2=O)cc1 (stereo not drawn) [ALB-113754]	1.7	–
15700	CCCc1cccc2c1C(=O)N(c1ccc(C(C)C(=O)O)cc1)C2 (stereo not drawn) [ALB-113756]	1.33	–
–	CCCCc1cccc2c1C(=O)N(c1ccc(C(C)C(=O)O)cc1)C2 (stereo not drawn) [ALB-113757]	1.18	–
1400	CC(CN1CCOCC1)c1ccc(N2Cc3ccccc3C2=O)cc1 (stereo not drawn) [ALB-113758]	1.29	–
510	CCCCCOc1ccc2c(c1)CN(c1ccc(C(C)C(=O)O)cc1)C2=O (stereo not drawn) [ALB-113759]	1.22	–
–	CC(C)Oc1ccc2c(c1)CN(c1ccc(C(C)C(=O)O)cc1)C2=O (stereo not drawn) [ALB-113834]	1.1	–
–	CCCCc1ccc2c(c1)CN(c1ccc(C(C)C(=O)O)cc1)C2=O (stereo not drawn) [ALB-113835]	1.15	–
544	CC(C(=O)O)c1ccc(N2Cc3ccc(F)cc3C2=O)cc1 (stereo not drawn) [ALB-113836]	1.78	–
–	CC(C(=O)O)c1ccc(N2Cc3cc(OC4CCCC4)ccc3C2=O)cc1 (stereo not drawn) [ALB-113963]	1.14	–
–	CC(C(=O)O)c1ccc(N2Cc3cc(OCC(F)(F)F)ccc3C2=O)cc1 (stereo not drawn) [ALB-113964]	1.08	–

EC50 [1] [nM]	SMILES	maximal fold induction [2]	maximal fold induction (SMN2-linked luciferase reporter, average maximum fold increase)
79	C=Cc1ccc2c(c1)C(=O)N(c1ccc(C(C)C(=O)O)cc1)C2 (stereo not drawn) [ALB-113965]	1.83	–
663	CC(C(=O)O)c1ccc(N2Cc3ccc(OCC(F)(F)F)cc3C2=O)cc1 (stereo not drawn) [ALB-113966]	1.78	–
88	C/C=C/c1ccc2c(c1)C(=O)N(c1ccc(C(C)C(=O)O)cc1)C2 (stereo not drawn) [ALB-114086]	1.99	–
226	C/C=C(\C)c1ccc2c(c1)C(=O)N(c1ccc(C(C)C(=O)O)cc1)C2 (stereo not drawn) [ALB-114087]	1.88	–
78	CCC(C)c1ccc2c(c1)C(=O)N(c1ccc(C(C)C(=O)O)cc1)C2 (stereo not drawn) [ALB-114088]	2.19	–
902	C/C=C\c1ccc2c(c1)C(=O)N(c1ccc(C(C)COC)cc1)C2 (stereo not drawn) [ALB-114089]	1.55	–
214	CC(CF)c1ccc(N2Cc3ccccc3C2=O)cc1 (stereo not drawn) [ALB-114090]	1.47	–
699	CCCc1ccc2c(c1)C(=O)N(c1ccc(C(C)COC)cc1)C2 (stereo not drawn) [ALB-114091]	1.46	–
–	COc1cc2c(cc1OC)C(=O)N(c1ccc(C(C)C(=O)O)cc1)C2 (stereo not drawn) [ALB-114437]	1.2	–
1900	CC(C(=O)O)c1ccc(N2Cc3ccc(CN4CCOCC4)cc3C2=O)cc1 (stereo not drawn) [ALB-114438]	1.27	–
52	COCc1ccc2c(c1)C(=O)N(c1ccc(C(C)C(=O)O)cc1)C2 (stereo not drawn) [ALB-114439]	1.51	–
303	CC(CN)c1ccc(N2Cc3ccccc3C2=O)cc1 (stereo not drawn) [ALB-114604]	1.39	–
181	COc1ccc2c(c1)C(=O)N(c1ccc(C(C)CO)cc1)C2 (stereo not drawn) [ALB-114606]	1.31	–
35	CC(C(=O)O)c1ccc(N2Cc3ccc(C4CCCC4)cc3C2=O)cc1 (stereo not drawn) [ALB-114607]	1.51	–
–	CC(C(=O)O)c1ccc(N2Cc3ccc(CN(C)C)cc3C2=O)cc1 (stereo not drawn) [ALB-114608]	1.23	–
–	CC(C(=O)O)c1ccc(N2Cc3ccc(N4CCOCC4)cc3C2=O)cc1 (stereo not drawn) [ALB-114738a]	1.08	–
58	CC(C(=O)O)c1ccc(N2Cc3ccc(N4CCCC4)cc3C2=O)cc1 (stereo not drawn) [ALB-114739a]	1.55	–
822	CC(CF)c1ccc(N2Cc3ccc(C4CCCC4)cc3C2=O)cc1 (stereo not drawn) [ALB-114740]	1.22	–
–	CC(C)OCc1ccc2c(c1)C(=O)N(c1ccc(C(C)C(=O)O)cc1)C2 (stereo not drawn) [ALB-114741]	1.67	–
42	CCOCc1ccc2c(c1)C(=O)N(c1ccc(C(C)C(=O)O)cc1)C2 (stereo not drawn) [ALB-114742]	1.58	–
448	CCOCc1ccc2c(c1)C(=O)N(c1ccc(C(C)CO)cc1)C2 (stereo not drawn) [ALB-114743]	1.37	–
–	CCOCC(C)c1ccc(N2Cc3ccccc3C2=O)cc1 (stereo not drawn) [ALB-114744]	1.18	–
81	CC(C(=O)O)c1ccc(N2Cc3cc4c(cc3C2=O)OCO4)cc1 (stereo not drawn) [ALB-114782]	1.65	–
–	COCC(C)c1ccc(N2Cc3ccc(C4CCCC4)cc3C2=O)cc1 (stereo not drawn) [ALB-114845]	1.15	–

— patent US8110681B2, “Compounds for the treatment of spinal muscular atrophy and other uses” (The United States of America as represented by the …, priority 2006, dated 2012)
